# In patent US12594265B2, “Methods and compositions for inhibition of STAT3” (Ohio State Innovation Foundation, priority 2017, dated 2026):
# Columns and labels:
# [1] = system: pSTAT3 in CD4 T cells from MS patients; assay: Phosphorylation of STAT3 in CD4 T cells from MS patients (phospho flow cytometry); assay type: cell-based, human; conditions: 0.25 μM; αhCD3 plus rhIL-6 for 30 minutes; 6 patients
# Protocol: FIGS. 13A-13C show representative data for the effect of LLL12b treatment on the phosphorylation status of STAT3 in CD4 T-cells obtained from MS patients. Briefly, PBMCs from treatment-naïve MS patients were activated with αhCD3 plus rhIL-6 for 30 minutes, in the presence of 0.25 μM of LLL12b or vehicle control (DMSO). pSTAT3 was determined by phospho flow cytometry. Cells were gated on CD4+ cells.
# LLL12b inhibits the phosphorylation of STAT3 in CD4 T cells from MS patients. To determine whether LLL12b suppresses the phosphorylation of STAT3 in human CD4 T cells, PBMCs from 6 treatment-naïve MS patients were activated with αhCD3 plus rhIL-6 for 30 minutes, in the presence of 0.25 μM of LLL12b or vehicle control (DMSO). pSTAT3 was determined by phospho flow cytometry.
# [2] = system: chronic EAE model of MS; assay: Chronic EAE model of MS (MOG-immunized B6 mice); assay type: in vivo
# Protocol: (§1) EAE Induction. Immunization: 8-10 week old B6/WT or SJL/WT mice were s.c. injected over four sites in the flank with 200 μg MOG 35-55 or […] (CS bio) in an emulsion with CFA (Difco). 200 ng pertussis toxin (List) per mouse in PBS was injected i.p. at the time of immunization and 48 h later. Adoptive transfer: Splenocytes were isolated from naïve 5-10-week-old Vα2.3/Vβ8.2 TCR transgenic mice and activated with 10 μg/ml of MBP Ac1-11 with or without rmIL-6 in 24-well plates at […] with irradiated B10.PL splenocytes (6×10^8 cells/well). After 72 hours, the cells were washed with PBS and 8×10^6 were injected i.p. into naïve B10.PL mice. Evaluation. The mice were evaluated daily for clinical signs of EAE. Mice were scored on scale of 0 to 6:0, no clinical disease; 1, limp/flaccid tail; 2, moderate hind limb weakness; 3. severe hind limb weakness; 4. complete hind limb paralysis; 5 quadriplegia or premoribund state; and 6, death.
# The in vivo efficacy of LLL12b was also evaluated in chronic EAE model of MS in immunized B6 mice by treating EAE mice with […] of LLL12b for 7 days after disease onset. FIGS. 8A-8B show representative data for the effect of a representative disclosed compound, LLL12b, for suppression of EAE development in a chronic EAE model of MS. Briefly, naïve WT/B6 mice were immunized with […].
# [3] = system: relapsing-remitting EAE model of MS; assay: Relapsing-remitting EAE model of MS (PLP-immunized SJL mice); assay type: in vivo; conditions: 10 mg/kg daily, days 9-15 or days 36-42
# Protocol: as §1
# SJL mice develop relapsing-remitting disease after immunization with PLP 139-151, which resembles human relapsing-remitting MS, the major subtype of MS that affects more than 85% of MS patients. […]
# [4] = system: splenocytes from naïve TCR transgenic mice; assay: Cellular toxicity, trypan blue exclusion assay; assay type: cell-based; conditions: 24 h, 48 h, 72 h; at the doses showing significant suppression of IL-17 production
# Protocol: In vitro toxicity evaluation of new STAT3 prodrugs. Cellular toxicity testing was carried out using a trypan blue exclusion assay as described herein. FIGS. 6A-6C show representative data for cell viability after treatment with DMSO or the indicated concentration of the indicated representative prodrug at 24 h, 48 h, and 72 h post-treatment. The data were obtained using a trypan blue exclusion assay using splenocytes from naïve TCR transgenic mice that were cultured as described.
smiles,measurement,setting,value
CN(C)C(=O)Oc1cccc2c1C(=O)c1cccc(S(N)(=O)=O)c1C2=O [LLL12b],pSTAT3 expression in CD4 T cells from MS patients,[1],significantly suppresses pSTAT3 expression
same,EAE development (mean clinical score),"[2]; 10 mg/kg for 7 days, day 14 to day 20, after disease onset",significantly suppresses EAE development
same,IL-17 production of splenocytes from treated mice (ELISA),"[2]; ex vivo, activated with MOG 35-55 for 3 days",decreased IL-17 production
same,acute and relapsing EAE (mean clinical score),[3],significantly suppresses acute and relapsing EAE
same,"cellular toxicity (cell viability, trypan blue exclusion)",[4],minimal cellular toxicity
